The source of these data is patent publication US10183950B2, “Thienopyrimidine inhibitors of atypical protein kinase C” (Cancer Research Technology Limited, priority 2011, dated 2019).

The term IC50 denotes the concentration that inhibits the measured activity by half.

The experiment has as its target T1, full-length human PKCι (Homo sapiens, UniProt P41743).
T1 construct: Recombinant, full-length human PKCι expressed in Sf21 insect cells is also commercially available; purchased; host or cells: Sf21 insect cells
T1 sequence (P41743 1-596): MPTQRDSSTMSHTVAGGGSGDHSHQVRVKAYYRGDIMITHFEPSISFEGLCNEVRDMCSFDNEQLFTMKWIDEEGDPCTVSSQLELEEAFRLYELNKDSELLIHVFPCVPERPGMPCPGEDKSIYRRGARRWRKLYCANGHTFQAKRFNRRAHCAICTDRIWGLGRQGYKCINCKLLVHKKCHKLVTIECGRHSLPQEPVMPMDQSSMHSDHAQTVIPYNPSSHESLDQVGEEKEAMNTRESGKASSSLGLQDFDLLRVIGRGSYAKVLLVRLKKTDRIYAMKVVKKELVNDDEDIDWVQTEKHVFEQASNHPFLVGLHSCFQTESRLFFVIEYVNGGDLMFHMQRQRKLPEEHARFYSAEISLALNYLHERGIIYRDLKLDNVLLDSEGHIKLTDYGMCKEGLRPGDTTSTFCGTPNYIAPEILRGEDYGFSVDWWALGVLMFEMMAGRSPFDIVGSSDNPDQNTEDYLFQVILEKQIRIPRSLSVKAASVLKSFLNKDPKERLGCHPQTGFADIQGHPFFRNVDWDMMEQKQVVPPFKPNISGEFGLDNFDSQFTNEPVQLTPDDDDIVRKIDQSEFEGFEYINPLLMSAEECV
As to the kind of experiment: PKCι IC50 IMAP fluorescence polarisation assay, full-length enzyme. The experiment is classed as biochemical. Particulars: full length PKCi at 15 μM ATP; read-out: IC50 in IMAP assay against full length PKCi. (Polarisation of emitted light reports the rotation of a fluorescent probe.)
For `Brc1csc2c(N[C@H]3CCNC3)nc(-c3ccncc3)nc12` [compound 344, (7-Bromo-2-pyridin-4-yl-thieno[3,2-d]pyrimidin-4-yl)-(S)-pyrrolidin-3-yl-amine], the IC50 was in the range of 1000 to 10000 nM.

`CNCCNc1nc(-c2ccncc2)nc2c(Br)csc12` [compound 345, N-(7-Bromo-2-pyridin-4-yl-thieno[3,2-d]pyrimidin-4-yl)-N′-methyl-ethane-1,2-diamine]: the IC50 was in the range of 1000 to 10000 nM. Take `CC(C)C[C@H](N)CNc1nc(-c2ccncc2)nc2c(Br)csc12` [compound 346, (S)-N*1*-(7-Bromo-2-pyridin-4-yl-thieno[3,2-d]pyrimidin-4-yl)-4-methyl-pentane-1,2-diamine]: the IC50 fell in the range of 1000 to 10000 nM. Next, `CC(C)[C@H](N)CNc1nc(-c2ccncc2)nc2c(Br)csc12` [compound 347, (S)-N*1*-(7-Bromo-2-pyridin-4-yl-thieno[3,2-d]pyrimidin-4-yl)-3-methyl-butane-1,2-diamine]: 100 to 1000 nM; `N[C@H](CNc1nc(-c2ccncc2)nc2c(Br)csc12)CC1CCCCC1` [compound 348, (S)-N*1*-(7-Bromo-2-pyridin-4-yl-thieno[3,2-d]pyrimidin-4-yl)-3-cyclohexyl-propane-1,2-diamine]: 100 to 1000 nM; `NCCNc1nc(-c2ccncc2)nc2c(Br)csc12` [compound 349, N*1*-(7-Bromo-2-pyridin-4-yl-thieno[3,2-d]pyrimidin-4-yl)-ethane-1,2-diamine]: 100 to 1000 nM. Next, `Brc1csc2c(N3CCNCC3)nc(-c3ccncc3)nc12` [compound 350, 7-Bromo-4-piperazin-1-yl-2-pyridin-4-yl-thieno[3,2-d]pyrimidine]: 100 to 1000 nM; `Brc1csc2c(N[C@@H]3CCNC3)nc(-c3ccncc3)nc12` [compound 351, (7-Bromo-2-pyridin-4-yl-thieno[3,2-d]pyrimidin-4-yl)-(R)-pyrrolidin-3-yl-amine]: less than 100 nM. Next, `Fc1cnccc1-c1nc(N[C@@H]2CCNC2)c2scc(Br)c2n1` [compound 352, [7-Bromo-2-(3-fluoro-pyridin-4-yl)-thieno[3,2-d]pyrimidin-4-yl]-(R)-pyrrolidin-3-yl-amine]: 1000 to 10000 nM; `C[C@H](N)CNc1nc(-c2ccncc2F)nc2ccsc12` [compound 353, (S)-N*1*-[2-(3-Fluoro-pyridin-4-yl)-thieno[3,2-d]pyrimidin-4-yl]-propane-1,2-diamine]: 10000 to 40000 nM. With `Fc1cnccc1-c1nc(N[C@@H]2CCNC2)c2sccc2n1` [compound 354, [2-(3-Fluoro-pyridin-4-yl)-thieno[3,2-d]pyrimidin-4-yl]-(R)-pyrrolidin-3-yl-amine], the IC50 was 10000 to 40000 nM.

For `N[C@H](CNc1nc(-c2ccncc2F)nc2ccsc12)Cc1ccccc1` [compound 355, (S)-N*1*-[2-(3-Fluoro-pyridin-4-yl)-thieno[3,2-d]pyrimidin-4-yl]-3-phenyl-propane-1,2-diamine], the IC50 is 1000 to 10000 nM. `CC(C)(C)c1ccc(-c2cc3nc(-c4ccncc4)nc(N4CCNCC4)c3s2)cc1` [compound 357, 6-(4-tert-Butyl-phenyl)-4-piperazin-1-yl-2-pyridin-4-yl-thieno[3,2-d]pyrimidine]: the IC50 was 10000 to 40000 nM. Next, `Cc1sc2c(NC[C@@H](N)Cc3ccccc3)nc(-c3ccncc3)nc2c1-c1ccn[nH]1` [compound 388, (S)—N*1*-[6-methyl-7-(2H-pyrazol-3-yl)-2-pyridin-4-yl-thieno[3,2-d]pyrimidin-4-yl]-3-phenyl-propane-1,2-diamine]: less than 100 nM; `Cc1c(-c2ccn[nH]2)sc2c(N[C@@H]3CCNC3)nc(-c3ccncc3)nc12` [compound 389, [7-Methyl-6-(2H-pyrazol-3-yl)-2-pyridin-4-yl-thieno[3,2-d]pyrimidin-4-yl]-(R)-pyrrolidin-3-yl-amine]: 1000 to 10000 nM.

Regarding `N[C@H](CNc1nc(-c2ccncc2)nc2c(-c3ccn[nH]3)csc12)Cc1ccccc1` [compound 390, (S)-3-Phenyl-N*1*-[7-(2H-pyrazol-3-yl)-2-pyridin-4-yl-thieno[3,2-d]pyrimidin-4-yl]-propane-1,2-diamine], the IC50 is less than 100 nM. Next, `Cn1nccc1-c1csc2c(NC[C@@H](N)Cc3ccccc3)nc(-c3ccncc3)nc12` [compound 391, (S)-N*1*-[7-(2-Methyl-2H-pyrazol-3-yl)-2-pyridin-4-yl-thieno[3,2-d]pyrimidin-4-yl]-3-phenyl-propane-1,2-diamine]: 1000 to 10000 nM.

For `Cc1noc(C)c1-c1csc2c(NC[C@@H](N)Cc3ccccc3)nc(-c3ccncc3)nc12` [compound 392, N*1*-[7-(3,5-Dimethyl-isoxazol-4-yl)-2-pyridin-4-yl-thieno[3,2-d]pyrimidin-4-yl]-3-phenyl-propane-1,2-diamine], the IC50 lay in the range of 1000 to 10000 nM. On to `N[C@H](CNc1nc(-c2ccncc2)nc2c(-c3cn[nH]c3)csc12)Cc1ccccc1` [compound 393, (S)-3-Phenyl-N*1*-[7-(1H-pyrazol-4-yl)-2-pyridin-4-yl-thieno[3,2-d]pyrimidin-4-yl]-propane-1,2-diamine], for which the IC50 lay within 100 to 1000 nM. Next, `CC(C)Cn1cc(-c2csc3c(NC[C@@H](N)Cc4ccccc4)nc(-c4ccncc4)nc23)cn1` [compound 394, (S)-N*1*-[7-(1-Isobutyl-1H-pyrazol-4-yl)-2-pyridin-4-yl-thieno[3,2-d]pyrimidin-4-yl]-3-phenyl-propane-1,2-diamine]: 1000 to 10000 nM. Next, `Cc1csc(-c2csc3c(NC[C@@H](N)Cc4ccccc4)nc(-c4ccncc4)nc23)c1` [compound 395, (S)-N*1*-[7-(4-Methyl-thiophen-2-yl)-2-pyridin-4-yl-thieno[3,2-d]pyrimidin-4-yl]-3-phenyl-propane-1,2-diamine]: 1000 to 10000 nM. Next, `Cc1ccsc1-c1csc2c(NC[C@@H](N)Cc3ccccc3)nc(-c3ccncc3)nc12` [compound 396, (S)-N*1*-[7-(3-Methyl-thiophen-2-yl)-2-pyridin-4-yl-thieno[3,2-d]pyrimidin-4-yl]-3-phenyl-propane-1,2-diamine]: 100 to 1000 nM. For `N[C@H](CNc1nc(-c2ccncc2)nc2c(-c3ccc[nH]3)csc12)Cc1ccccc1` [compound 397, (S)-3-Phenyl-N*1*-[2-pyridin-4-yl-7-(1H-pyrrol-2-yl)-thieno[3,2-d]pyrimidin-4-yl]-propane-1,2-diamine], the 50% inhibitory concentration (IC50) was 100 to 1000 nM. Next, `N[C@H](CNc1nc(-c2ccncc2)nc2c(-c3cc[nH]c3)csc12)Cc1ccccc1` [compound 398, (S)-3-Phenyl-N*1*-[2-pyridin-4-yl-7-(1H-pyrrol-3-yl)-thieno[3,2-d]pyrimidin-4-yl]-propane-1,2-diamine]: 100 to 1000 nM; `CC(C)(C)[Si](C)(C)C#Cc1csc2c(NC[C@@H](N)Cc3ccccc3)nc(-c3ccncc3)nc12` [compound 399, (S)-N*1*-{7-[(tert-Butyl-dimethyl-silanyl)-ethynyl]-2-pyridin-4-yl-thieno[3,2-d]pyrimidin-4-yl}-3-phenyl-propane-1,2-diamine]: 1000 to 10000 nM; `COCC#Cc1csc2c(NC[C@@H](N)Cc3ccccc3)nc(-c3ccncc3)nc12` [compound 400, (S)-N*1*-[7-(3-Methoxy-prop-1-ynyl)-2-pyridin-4-yl-thieno[3,2-d]pyrimidin-4-yl]-3-phenyl-propane-1,2-diamine]: less than 100 nM.
